{"source": "patent US20240299384A1", "about": "“METHODS FOR TREATING PULMONARY HYPERTENSION IN PATIENTS WITH LEFT VENTRICULAR ASSIST DEVICE IMPLANTATION” (ACTELION PHARMACEUTICALS LTD, priority 2021, published 2024)", "key": {"[1]": {"tested_on": "patients with PH post-LVAD implantation", "experiment": "Phase 2 study in PH post-LVAD implantation: serum NT-proBNP", "format": "in vivo, human", "conditions": "10 mg once daily", "protocol": "This is a double-blind, placebo-controlled, multicenter, parallel-group Phase 2 study assessing the efficacy and safety of macitentan in PH post-LVAD implantation. Approximately 57 adult patients with PH post-LVAD implantation were randomized (1:1) to receive either macitentan 10 mg, or matching placebo, once daily orally.\nA blood sample is drawn at Randomization (Visit 2) and EOT (Visit 5) for the analysis of serum NT-proBNP. See, Table 12 for serum NT-proBNP at Week 12 compared to baseline for the FAS.\nNT-proBNP is summarized by time point and treatment group using descriptive statistics as well as geometric means and CVs. The ratio of Week 12 to Baseline NT-proBNP is summarized similarly. The ratio versus Baseline in NT-proBNP is log-transformed and analyzed using an ANCOVA with covariates for treatment group and Baseline log NT-proBNP."}, "healthy male subjects": {"tested_on": "healthy male subjects", "experiment": "Phase 1 open-label study of 75 mg qd macitentan with and without up-titration: safety", "format": "in vivo, human", "protocol": "This is a single-sequence, open-label, single-center, Phase 1 study in healthy male subjects. The study assessed the effect of 75 mg qd administration of macitentan. The study includes a screening phase of 21 days before the first macitentan administration, followed by an open-label treatment phase. Randomization was not used and subjects received the same treatment.\n• 29 subjects were enrolled.\nAdministration of 75 mg qd macitentan started on Day 1. Macitentan was administered every day in the morning between 8:00 and 11:00 with 240 mL of noncarbonated water. One 75-mg macitentan film-coated tablet was thus administered as multiple qd oral doses under fed conditions.\nSubjects were planned to take macitentan 75 mg for 15 days. However the study was interrupted on the morning of day 8, i.e. when subjects had received 7 doses of macitentan 75 mg.\nMacitentan was administered in an up-titration regimen in the morning between 8:00 and 11:00 with 240 mL of noncarbonated water. One macitentan film-coated tablet (10 mg, 37.5 mg or 75 mg) was administered as multiple qd oral doses under fed conditions on Days 1-9 and Days 11-12, and under fasted conditions on Days 10 and 13. The up-titration regimen consists of 2 qd doses of 10 mg macitentan and 3 qd doses of 37.5 mg macitentan followed by 8 qd doses of 75 mg macitentan. On Days −4, −3, 10 and 13 (i.e., the days when dosing occurred under fasted conditions), no fluid intake apart from the water taken at the time of macitentan administration was allowed from 1 hour before until 1 hour after administration of macitentan.\nAll reported AEs with onset during the treatment phase were included in the analysis. The effects on cardiovascular variables were evaluated and the following variables were collected: PR (ms), QRS (ms), QT (ms), QTcB (ms), QTcF (ms), heart rate (bpm), and RR. The normal range for vital signs is defined as follows: • Systolic blood pressure: 100-140 mmHg • Diastolic blood pressure: 60-90 mmHg • Pulse rate: 45-90 bpm • Respiratory rate: 8-20 per minute • Body temperature: 35.0° C. to 37.5° C.\nAn AE is any untoward medical occurrence, i.e., any unfavorable and unintended sign (including an abnormal finding), symptom, or disease temporally associated with the use of macitentan. A treatment-emergent AE is any occurrence that is new in onset or aggravated in severity from the baseline condition. The following are used to assess all AEs: • Related: There is a reasonable causal relationship between macitentan administration and the AE. • Not Related: There is not a reasonable causal relationship between macitentan administration and the AE.\nAn assessment of AE severity grade was made using the following general categorical descriptors: • Mild: Awareness of symptoms that are easily tolerated, causing minimal discomfort and not interfering with everyday activities. • Moderate: Sufficient discomfort is present to cause interference with normal activity. • Severe: Extreme distress, causing significant impairment of functioning or incapacitation. Prevents normal everyday activities."}, "[2]": {"conditions": "humans, cited from earlier work"}, "[3]": {"conditions": "75 mg qd, no titration, 6 subjects"}}, "data": [{"compound": "CCCNS(=O)(=O)Nc1ncnc(OCCOc2ncc(Br)cn2)c1-c1ccc(Br)cc1", "note": "[Macitentan, propylsulfamic acid [5-(4-bromo-phenyl)-6-[2-(5-bromo-pyrimidin-2-yloxy)-ethoxy]-pyrimidin-4-yl]-amide]", "values": [{"measurement": "NT-proBNP at Week 12/EOT, Mean (std)", "setting": "[1]; FAS, n 22", "value": "2435.4 (2620.75) ng/L"}, {"measurement": "NT-proBNP at Week 12/EOT, Median", "setting": "[1]; FAS, n 22", "value": 1098.0, "unit": "ng/L"}, {"measurement": "NT-proBNP (Geometric mean ratio − 1) × 100%", "setting": "[1]; Week 12, FAS", "value": 10.9, "unit": "%"}, {"measurement": "NT-proBNP, Comparison to Placebo, Geometric Mean Ratio", "setting": "[1]; Week 12, FAS", "value": 1.1086}, {"measurement": "NT-proBNP Ratio to Baseline, Mean (std)", "setting": "[1]; Week 12: Baseline, FAS, n 22", "value": "0.8 (0.57)"}, {"measurement": "NT-proBNP Ratio to Baseline, Median", "setting": "[1]; Week 12: Baseline, FAS, n 22", "value": 0.6}, {"measurement": "reduction in hemoglobin", "setting": "healthy male subjects; 75 mg qd", "value": "≤ 2", "unit": "g/dL"}, {"measurement": "vital signs, ECG and lab parameters", "setting": "healthy male subjects; 75 mg qd", "value": "no clinically significant changes"}, {"measurement": "severity of AEs overall", "setting": "healthy male subjects; 75 mg qd, AEs reported from Day 2 onwards", "value": "mainly mild"}, {"measurement": "Photophobia, Severity of AEs (No titration)", "setting": "healthy male subjects; [3]", "value": "All mild"}, {"measurement": "Sinusitis/rhinitis/nasal congestion, Severity of AEs (No titration)", "setting": "healthy male subjects; [3]", "value": "All mild"}, {"measurement": "tolerability with up-titration regimen", "setting": "healthy male subjects; 75 mg, up-titration vs no up-titration", "value": "improved tolerability"}, {"measurement": "resolution of AEs", "setting": "healthy male subjects; four days after stopping macitentan", "value": "most of the AEs resolved"}, {"measurement": "Sinusitis/rhinitis/nasal congestion, Severity of AEs (With titration)", "setting": "healthy male subjects; up-titration 10 mg, 37.5 mg, 75 mg qd, 6 subjects", "value": "Mild, less"}, {"measurement": "completion of treatment", "setting": "healthy male subjects; up-titration regimen cohort", "value": "All subjects completed treatment"}, {"measurement": "time to steady state", "setting": "[2]; 10 mg oral dose once a day", "value": "third day"}, {"measurement": "absorption into the plasma", "setting": "[2]", "value": "absorbed slowly"}, {"measurement": "half-life", "setting": "[2]", "value": "about 16 hours"}]}]}
